Test results: the METLIN SMRT retention time set (Domingo-Almenara et al. 2019)

assay: gradient 5% acetonitrile 3 min, to 50% in 2 min, to 85% in 15 min, held 3 min, 100 µL/min; conditions: column: Zorbax Extend-C18 2.1 x 50 mm; eluents: water / acetonitrile, 0.1% formic acid
Procedure, shortened: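 In both positive and negative ionization mode, a quadrupole time-of-flight mass spectrometer coupled to HPLC analyzed pure standards run in mixtures of ~100 molecules. The Zorbax Extend-C18 column (2.1 × 50 mm, 1.8 μm) was operated at 100 μL/min with water and acetonitrile, each containing 0.1% formic acid. The dead volume was 40 μL and the dwell volume 900 μL. Retention time came from adduct peaks that were computationally picked and individually inspected by hand.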

Compound	RP-LC retention time
Cc1ccc(CNC(=O)Cn2ccc3c(SCc4ccc(F)cc4)nccc32)o1	735 s
Cc1nnc2ccc(S(=O)(=O)N(Cc3ccc(F)cc3)c3ccccc3)cn12	863 s
O=C(NCC(F)(F)F)C1CCN(C(=O)COc2ccccc2)CC1	676 s
O=C(C1CCN(c2ccc(Sc3ccccc3)nn2)CC1)N1CCOCC1	647 s
CCc1noc(-c2ccc(SCC(=O)N3CCN(c4ccccn4)CC3)nc2)n1	619 s
Cc1nc(N2CCN(c3ccccn3)CC2)nc2oc(-c3ccccc3)nc12	755 s
O=C(NC1CC1)[C@@H]1C[C@H](Oc2ccccc2)CN1C(=O)c1ccoc1	709 s
Cc1nn(CC(=O)N2CCN(c3ccc(Cl)cc3)CC2)c(=O)c2nc(C(C)C)sc12	921 s
CCOC(=O)c1noc2nc(C)nc(NC(C)c3ccccc3)c12 (stereo not given)	1140 s
CCCNC(=O)N1CCc2nc(-c3ccccc3)ncc2C1	751 s
O=c1c2sccc2n(Cc2nc(-c3ccccc3)no2)c(=O)n1-c1cccc(F)c1	959 s
Cc1sc(-c2nc(-c3ccc(F)cc3)no2)cc1S(=O)(=O)N1CCN(c2ncccn2)CC1	1240 s
Cn1c(N2CCC(C(=O)N3CCN(c4ccccc4F)CC3)CC2)cc(=O)n(C)c1=O	716 s
CC(C)(C)CC(=O)NCCn1c(=O)n(Cc2ccc(F)cc2)c2cccnc21	808 s
COC1CCN(C(=O)NC(C)C)CC1	599 s
Cc1ccc(NC(=O)N2CCCC2c2cc(C)on2)c(Cl)c1 (stereo not given)	897 s
CC(C)c1noc(COC2CCCN(C(=O)NCc3ccco3)C2)n1 (stereo not given)	774 s
CCC(C)NC(=O)CCCn1c(=O)c2cccn2c2ccc(Br)cc21 (stereo not given)	894 s
Cc1ccc(-c2cn3c(n2)N(C(=O)c2cnn4cccnc24)CCC3)cc1	613 s

Compound	RP-LC retention time
Cc1ccccc1S(=O)(=O)N1CCC2(CC1)NCCN=C2NCc1cccc(F)c1	712 s
O=S(=O)(c1ccccc1)N1CC2CN(S(=O)(=O)c3cccc(F)c3)CC(C1)O2	905 s
CCN1CCN(C(=O)c2nnc(-c3ccc(S(=O)(=O)N4CCCC4)cc3)o2)CC1	623 s
Cc1ccc2[nH]c(=O)c(CCC(=O)N3CCCN(c4ncccn4)CC3)cc2c1	654 s
CC(C)NC(=O)N1CCC(CCOc2ccccc2F)C1 (stereo not given)	853 s
Cc1ccc(NC(=O)C2CCCN(S(=O)(=O)c3c[nH]c(C(=O)N4CCCCCC4)c3)C2)cc1C (stereo not given)	871 s
CCC(C)NC(=O)N1CC(Oc2ccccc2-c2nc(-c3ccccc3)no2)C1 (stereo not given)	999 s
CCn1c(=O)c(NCc2ccc(F)cc2Cl)nc2ccncc21	661 s
CCN(CC)c1ccc(-c2noc(CN3CCN(c4cccc(C)c4)CC3)n2)cn1	865 s
CCCCn1cc(S(=O)(=O)Nc2ccccc2F)c2cccnc21	922 s
FC(F)(F)c1cccc(Nc2c(-c3ccc(Cl)cc3)nc3cnccn23)c1	1090 s
CC(C)c1cc(C(=O)Nc2ccc(F)c(Cl)c2)nn1C1CCS(=O)(=O)C1 (stereo not given)	997 s
Cc1ccc2nc(Nc3nc(C)cc(C(F)(F)F)n3)nc(C)c2c1	713 s
CC1CCN(C(=O)Cc2nnc3cc(-c4nc(C(C)C)no4)ccn23)CC1	770 s
O=C(Nc1ccc2c(c1)OCCO2)c1coc2ccccc12	826 s
O=C(c1csc(-c2ccc(N3CCCCC3)nc2)n1)N1CCN(c2ccccn2)CC1	600 s
O=C(NC1CC1)C1CCN(c2ncccc2-c2nc(-c3ccc(Cl)cc3)no2)CC1	970 s
O=C(Nc1cccc(OCc2nnc(-c3ccccc3)o2)c1)C1CCCC1	943 s
COc1ccc(-c2ccc3nc(N4CCC(C(=O)N5CCOCC5)CC4)sc3n2)cc1	822 s

Compound	RP-LC retention time
O=C(C1CCCO1)N1CCCn2nc(-c3cccs3)cc2C1 (stereo not given)	689 s
O=C(NCc1ccccc1Br)C1CCN(c2cnc3nccnc3c2)CC1	739 s
CCOC(=O)c1noc2ncnc(NCc3cccc(Cl)c3)c12	1040 s
Cc1cccc(NC(=O)N2CCC(c3cc(N)on3)CC2)c1C	685 s
Cc1ccc(-n2c(CN3CCN(C(=O)NC4CCCC4)CC3)nc3cccnc32)cc1	663 s
N#Cc1ccc(CN2CCC3(CCC3O)CC2)cc1 (stereo not given)	570 s
COc1ccc(-c2noc(CSc3nccn3-c3ccccc3)n2)cc1	869 s
CCOCC(=O)NCc1ccc2c(c1)CCCN2C(=O)C1CCC1	750 s
Cc1nc(-c2ccc(-c3noc(-c4ccnn4C)n3)cc2)cs1	1060 s
O=C(c1ccc2ccnc(N3CCN(c4ccc(Cl)cc4)CC3)c2c1)N1CCCCC1	894 s
COc1ccc(-c2nc3ncccn3c2Nc2c(C)cccc2C)cc1	765 s
Cc1ccc(CNC(=O)c2cc(C)no2)cc1	793 s
O=C(Nc1ccc2nc3n(c(=O)c2c1)CCCCC3)C(=O)N1CCCCCC1	729 s
CCCN1C(=O)COc2ccc(-c3noc(-c4cccc(N(C)C)c4)n3)cc21	1300 s
O=C(NCc1ccsc1)C(=O)Nc1ccon1	665 s
O=C(CSc1nnc(-c2ccccc2F)o1)NC1CCCCC1	782 s
CCCc1noc(-c2ccc3nnc(CC(=O)Nc4ccccc4F)n3c2)n1	872 s
CC(C)c1noc(C2(NC(=O)C3CCCC3)CCCCC2)n1	968 s

Now from value to molecule:

RP-LC retention time	Compound
785 s	CC(=O)Nc1ccc(C2(C(=O)NCc3ccc(Cl)cc3)CCC2)cc1
964 s	COc1cc(C(=O)Nc2nc(-c3ccc4c(c3)N(C)C(=O)CO4)c(C)s2)cc(OC)c1OC
900 s	COc1cccc(CC2C(=O)Nc3ccc(Cl)cc32)c1OC (stereo not given)
575 s	Cc1ccc(NC(=O)N2CCc3nc[nH]c3C2)cc1
584 s	Cc1oc(-c2ccc(Cl)cc2)nc1CN1CCC(C(=O)NCc2ccccn2)CC1
802 s	CCc1cc(=O)n(CC(=O)Nc2cc(F)cc(F)c2)c(N2CCOCC2)n1
830 s	CCc1noc(NC(C)=O)c1-c1ccc(C)c(S(=O)(=O)Nc2ccc(C)cc2)c1
762 s	COc1ccc(CNC(=O)Cn2c(=O)c(CCC(=O)NCC(C)C)nc3ccccc32)cc1
730 s	CCOC(=O)c1oc2ccc(S(=O)(=O)N3CCC(c4ccncc4)CC3)cc2c1C
1000 s	COc1cccc(NC(=O)C2CCCCN2S(=O)(=O)c2ccc(F)cc2)c1 (stereo not given)
644 s	CSc1ccc(NC(=O)c2cc3c(s2)CN(C2CC2)C3)cc1
689 s	Cc1ccn2c(NC(=O)COc3ccccc3)c(-c3ccc(F)cc3)nc2c1
856 s	O=C(NCc1ccccc1Cl)c1ccc2c(c1)CCN2C(=O)C1CC1
809 s	Cc1ccc(Cl)cc1NC(=O)C(C)n1cnc2nc3c(cc2c1=O)CCCC3 (stereo not given)
722 s	COC(=O)c1c(C)[nH]c(C(=O)N2CCC(CC(=O)NCCc3c[nH]c4ccccc34)CC2)c1C
1150 s	COc1ccc(-c2nnc(-c3ccccc3Cl)o2)cc1S(=O)(=O)N1CCC(C)CC1
761 s	Cc1nc2cc(N3CC(C(=O)NCc4ccc(Br)cc4)CC3=O)ccc2o1 (stereo not given)

RP-LC retention time	Compound
946 s	COc1cc(OC)c(NC(=O)N(C)CCc2noc(-c3ccccc3)n2)cc1Cl
822 s	CNC(=O)Nc1ccc(C2(C(=O)Nc3cc(C)cc(C)c3)CCC2)cc1
1010 s	Cc1cccc(NC(=O)CN2C(=O)CCCc3cc(S(=O)(=O)N4CCC(C)CC4)ccc32)c1
888 s	COc1ccc(CCS(=O)(=O)NCC2CCN(C(=O)Oc3ccccc3)CC2)cc1
1140 s	CCN1C(=O)COc2cc(-c3noc(C(=O)N4CCN(c5cccc(Cl)c5)CC4)n3)ccc21
734 s	CC(C)NC(=O)c1ccc(OCC2CCCN2C(=O)c2ccc(C#N)cc2)cc1 (stereo not given)
814 s	Cc1sc2ccn(Cc3ccc(F)cc3)c(=O)c2c1C(=O)NC(C)C
1160 s	COC(=O)c1cc(C)nc2c1c(=O)n(Cc1ccc(Cl)cc1)c(=O)n2Cc1ccco1
915 s	COc1ccc(C(=O)N2CCC(COCc3ccccc3)CC2)cc1
614 s	COC(=O)c1ccc(NC(=O)CN2CCc3[nH]c4c(OC)ccc(Cl)c4c(=O)c3C2)cc1
879 s	C#CCNc1ccc(C(=O)OCC)cc1
594 s	CNC(=O)[C@@H]1CN(C(=O)Cn2c(=O)oc3ccccc32)C[C@H]1COC
748 s	O=C(CN1C(=O)CCS(=O)(=O)c2ccccc21)Nc1ccc(F)cc1
916 s	Cc1nc(-c2noc(-c3ccccc3)n2)cn1CC(=O)Nc1cccc(Cl)c1
1270 s	CCCc1noc(-c2ccnc(-n3ncc(C(=O)Nc4ccc(Cl)cc4)c3C)c2)n1
743 s	COCCNC(=O)CN1c2ccccc2NC2=C(C(=O)CC(C)(C)C2)C1c1ccc(OC)cc1 (stereo not given)
691 s	CCc1ccc(C(=O)N2CCN(c3nnc4cccc(C)n34)CC2)cc1
